In ChEMBL document CHEMBL5375980, “PSMA-targeted small-molecule drug-conjugates with valine-citrulline and phosphoramidate cleavable linkers” (Bioorg Med Chem Lett, 2024):
Activity calls are given as the source filed them. No cut-off for these calls is given here. Where a SMILES comes first, the peptide text is derived from it. [ ]: non-standard residue; d: D form. The star is where a group is joined. Dolaproine = CO[C@@H]([C@@H]1CCCN1)[C@@H](C)C(=O)O; Dil = CC[C@H](C)[C@H](NC)[C@@H](CC(=O)O)OC; X1 = C[C@@H](N*)[C@@H](O)c1ccccc1; NMeV = CN[C@H](C(=O)O)C(C)C

How the values were obtained:
LNCaP C4-2B [1] = assay: Anticancer activity against PSMA positive human LNCaP C4-2B cells assessed as cell viability at 10 nM incubated for 72 hrs by CellTiter-Glo Luminescent Cell Viability assay relative to control; type: functional; conditions: read-out: Activity
[2] = Anticancer activity against PMSA positive human PC3-PIP cells assessed as cell viability at 10 nM incubated for 72 hrs by CellTiter-Glo Luminescent Cell Viability assay relative to control; type: functional; conditions: read-out: Activity
PC-3 [3] = assay: Anticancer activity against PMSA negative human PC-3 cells assessed as reduction in cell viability at 10 nM incubated for 72 hrs by CellTiter-Glo Luminescent Cell Viability assay; type: functional, cell-based
LNCaP C4-2B [4] = assay: Anticancer activity against PSMA positive human LNCaP C4-2B cells assessed as cell viability at 20 nM incubated for 72 hrs by CellTiter-Glo Luminescent Cell Viability assay relative to control; type: functional; conditions: read-out: Activity
LNCaP C4-2B [5] = assay: Anticancer activity against PSMA positive human LNCaP C4-2B cells assessed as cell viability at 100 nM incubated for 72 hrs by CellTiter-Glo Luminescent Cell Viability assay relative to control; type: functional; conditions: read-out: Activity
LNCaP C4-2B [6] = assay: Anticancer activity against PSMA positive human LNCaP C4-2B cells assessed as reduction in cell viability incubated for 72 hrs by CellTiter-Glo Luminescent Cell Viability assay; type: functional, cell-based; conditions: dose […]
PC3-PIP cell = assay: Anticancer activity against PSMA positive human PC3-PIP cells assessed as reduction in cell viability incubated for 72 hrs by CellTiter-Glo Luminescent Cell Viability assay; type: functional, cell-based; conditions: dose 4-100 µM
PC-3 [7] = assay: Anticancer activity against PMSA negative human PC-3 cells assessed as cell viability at 10 nM incubated for 72 hrs by CellTiter-Glo Luminescent Cell Viability assay relative to control; type: functional; conditions: read-out: Activity
LNCaP C4-2B [8] = assay: Anticancer activity against PSMA positive human LNCaP C4-2B cells assessed as reduction in cell viability at 10 nM incubated for 72 hrs by CellTiter-Glo Luminescent Cell Viability assay; type: functional, cell-based
[9] = Anticancer activity against PSMA positive human PC3-PIP cells assessed as cell viability at 4 nM incubated for 72 hrs by CellTiter-Glo Luminescent Cell Viability assay relative to control; type: functional; conditions: read-out: Activity
[10] = Anticancer activity against PSMA positive human PC3-PIP cells assessed as cell viability at 100 nM incubated for 72 hrs by CellTiter-Glo Luminescent Cell Viability assay relative to control; type: functional; conditions: read-out: Activity

SMILES: CC[C@H](C)[C@@H]([C@@H](CC(=O)N1CCC[C@H]1[C@H](OC)[C@@H](C)C(=O)N[C@H](C)[C@@H](O)c1ccccc1)OC)N(C)C(=O)[C@@H](NC(=O)[C@H](C(C)C)N(C)C(=O)OCc1ccc(OC(=O)N(C)CCN(C)P(=O)(O)OCC[C@H](NC(=O)c2ccc(Cn3nnc4c3-c3ccccc3N(C(=O)CCC(=O)NCCOCCOCCOCCOCCC(=O)NCCCCCC(=O)N[C@@H](CCC(=O)N[C@@H](CCCOP(=O)(O)N[C@@H](CCC(=O)O)C(=O)O)C(=O)O)C(=O)O)c3ccccc3-4)cc2)C(=O)O)cc1)C(C)C
- viability at 0.01 µM (LNCaP C4-2B [1]): 58.8%
- viability at 0.01 µM [2]: 47.2%
- Activity (PC-3 [3]): inactive
- viability at 0.02 µM (LNCaP C4-2B [4]): 28.7%
- viability at 0.1 µM (LNCaP C4-2B [5]): 7.44%
- Activity (LNCaP C4-2B [6]): Dose-Dependent Effect
- Activity (PC3-PIP cell): Dose-Dependent Effect

SMILES: CC[C@H](C)[C@@H]([C@@H](CC(=O)N1CCC[C@H]1[C@H](OC)[C@@H](C)C(=O)N[C@H](C)[C@@H](O)c1ccccc1)OC)N(C)C(=O)[C@@H](NC(=O)[C@@H](NC)C(C)C)C(C)C (H-[NMeV]V[Dil][Dolaproine]-X1)
- viability at 0.01 µM (LNCaP C4-2B [1]): < 50%
- viability at 0.01 µM [2]: < 50%
- viability at 0.01 µM (PC-3 [7]): < 50%

SMILES: CC[C@H](C)[C@@H]([C@@H](CC(=O)N1CCC[C@H]1[C@H](OC)[C@@H](C)C(=O)N[C@H](C)[C@@H](O)c1ccccc1)OC)N(C)C(=O)[C@@H](NC(=O)[C@H](C(C)C)N(C)C(=O)OCc1ccc(NC(=O)[C@H](CCCNC(N)=O)NC(=O)[C@@H](NC(=O)c2ccc(Cn3nnc4c3-c3ccccc3N(C(=O)CCC(=O)NCCOCCOCCOCCOCCC(=O)NCCCCCC(=O)N[C@@H](CCC(=O)N[C@@H](CCCOP(=O)(O)N[C@@H](CCC(=O)O)C(=O)O)C(=O)O)C(=O)O)c3ccccc3-4)cc2)C(C)C)cc1)C(C)C
- viability at 0.01 µM [2]: < 50%
- Activity (LNCaP C4-2B [8]): inactive
- Activity (PC-3 [3]): inactive
- viability at 0.004 µM [9]: 80.9%
- viability at 0.1 µM [10]: 25.8%
